From patent US7217710B2, “Substituted pyrazolopyrimidines” (SmithKline Beecham Corporation, priority 2001, dated 2007) come the findings set out here.

What all share (type): biochemical
The target of test [1] is T1, GST-TIE2 (intracellular domains of human TIE2) (Homo sapiens, UniProt Q02763).
T1 construct: made in house
The test is described as follows: TIE-2 Enzyme Assay (TIE2-E2), LANCE method. Particulars: for IC50: read-out: TIE2 PIC50 TIE2-E2 assay. In short, it runs like this:
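GST-tagged human TIE2 intracellular domain (aa 762–1104), preactivated 2 h with 80 μM ATP, then 5 nM enzyme run 2 h at room temperature with 1 μM biotinylated D1–15 peptide, 80 μM ATP, HEPES pH 7.4, 2.4% DMSO. Phosphotyrosine detected by LANCE (Eu anti-pTyr/streptavidin-APC) after EDTA stop; IC50 by nonlinear regression, reported as pIC50.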
On the technique in general: TR-FRET usually uses a lanthanide donor and a delayed reading to cut background.

For the next test, the target named is T2, GST-VEGFR2 (Homo sapiens, UniProt P35968).
T2 construct: GST-VEGFR2, baculovirus expressed recombinant constructs of the intracellular domains; made in house
T2 sequence (P35968 786-1356 limits assumed): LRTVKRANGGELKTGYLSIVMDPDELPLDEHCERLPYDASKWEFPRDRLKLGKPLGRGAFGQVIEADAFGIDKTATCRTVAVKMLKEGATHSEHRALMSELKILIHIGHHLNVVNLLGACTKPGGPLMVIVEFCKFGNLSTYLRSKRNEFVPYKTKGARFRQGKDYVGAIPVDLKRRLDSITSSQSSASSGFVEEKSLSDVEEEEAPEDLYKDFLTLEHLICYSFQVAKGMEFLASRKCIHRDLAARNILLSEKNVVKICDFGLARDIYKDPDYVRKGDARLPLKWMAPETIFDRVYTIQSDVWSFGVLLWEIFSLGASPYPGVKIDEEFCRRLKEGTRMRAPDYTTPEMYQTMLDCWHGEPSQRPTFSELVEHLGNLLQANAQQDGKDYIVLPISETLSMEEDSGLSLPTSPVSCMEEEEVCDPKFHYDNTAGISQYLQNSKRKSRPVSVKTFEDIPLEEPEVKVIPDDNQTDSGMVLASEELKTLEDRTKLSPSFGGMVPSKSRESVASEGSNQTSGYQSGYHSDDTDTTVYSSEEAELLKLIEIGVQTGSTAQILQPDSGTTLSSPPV
The test is described as follows: VEGF-R2 Enzyme Assay (VEGF-E2), LANCE method. To be noted: for IC50: read-out: VEGFR2 PIC50 VEGFR-E2 assay.

Test [2] addresses T3, catalytic domain of human VEGFR3 (Homo sapiens, UniProt P35916, H890Q).
T3 construct: made in house; host or cells: Sf9 insect cells (baculovirus, pFastBac1)
The test is described as follows: VEGFR-3 Homogenous Time-Resolved Fluorescence Assay (VEGFR-3-HTRF). Particulars: for IC50: read-out: VEGFR3 PIC50 VEGFR-3-HTRF assay. The source says: VEGFR—3-Homogenous Time-Resolved Fluorescence Assay (VEGFR-3-HTRF)
This assay assesses Vascular Endothelial Growth Factor 3 (VEGFR3) tyrosine kinase inhibitory activity in substrate phosphorylation assays. The assay examines the ability of small molecule organic compounds to inhibit the tyrosine phosphorylation of a peptide substrate.
The substrate phosphorylation assays use the VEGFR3 catalytic domain, which is expressed in Sf. 9 insect cells as an amino-terminal GST-tagged fusion protein. The catalytic domain of human VEGFR3 (AA residues #819–1298 based upon GenBank Accession #XM003852) is cloned by PCR from human Placenta Marathon Ready cDNA (Clontech). The PCR product is subcloned into pFastBac1 vector containing an N-terminal GST tag. The resulting pFB/GST/VEGFR3icd vector is used to generate a recombinant baculovirus for protein expression. The VEGFR3 catalytic domain translated sequence is:
Autophosphorylation allows enzymes to be fully activated prior to addition to peptide substrates. The assays are performed using enzyme that has been activated by autophosphorylation via preincubation in buffer with ATP and magnesium. Activated enzyme is then diluted and added to titrated compound and the substrate mix.
200 nM VEGFR3 enzyme is activated for 45 minutes at room temperature by incubating the enzyme in buffer containing 100 mM HEPES (pH7.2), 75 μM ATP, 0.3 mM DTT, 0.1 mg/mL BSA, and 10 mM MgCl2. After activation, VEGFR3 is diluted 100-fold into 2× dilution buffer: 200 mM HEPES (pH 7.5), 0.2 mg/mL BSA, 0.6 mM DTT. 20 μL of the diluted enzyme mix is added to 20 μL of 2× substrate mix (150 μM ATP, 20 mM MgCl2, 0.72 μM biotinylated peptide) in the assay plates. Final assay conditions are: 100 mM HEPES (pH 7.2), 75 μM ATP, 10 mM MgCl2, 0.1 mg/mL BSA, 0.3 mM DTT, 0.36 μM biotinylated peptide, and 1 nM VEGFR3 enzyme. Assay plates are incubated for 1.5 hours at room temperature before the addition of 30 μL 100 mM EDTA to the wells to stop the enzymatic reaction. 40 μL/well of HTRF mix are then added to the assay plates for the detection of phosphorylated substrate. Final assay concentrations are: 100 mM HEPES (pH7.2), 0.1 mg/mL BSA, 15 nM streptavidin-labeled allophycocyanin (PerkinElmer), and 1 nM europium-labeled anti-phosphotyrosine antibody (PerkinElmer). Assay plates are left unsealed and are counted in a Wallac Multilabel Counter 1420 (PerkinElmer).
The data for dose responses are plotted as % Control calculated with the data reduction formula 100*(U1–C2)/(C1–C2) versus concentration of compound where U is the unknown value, C1 is the average control value obtained for DMSO , and C2 is the average control value obtained for 0.1M EDTA. Data are fitted to the curve described by: y=((Vmax*x)/(K+x)) where Vmax is the upper asymptote and K is the IC50.

T1 sequence (Q02763 762-1104): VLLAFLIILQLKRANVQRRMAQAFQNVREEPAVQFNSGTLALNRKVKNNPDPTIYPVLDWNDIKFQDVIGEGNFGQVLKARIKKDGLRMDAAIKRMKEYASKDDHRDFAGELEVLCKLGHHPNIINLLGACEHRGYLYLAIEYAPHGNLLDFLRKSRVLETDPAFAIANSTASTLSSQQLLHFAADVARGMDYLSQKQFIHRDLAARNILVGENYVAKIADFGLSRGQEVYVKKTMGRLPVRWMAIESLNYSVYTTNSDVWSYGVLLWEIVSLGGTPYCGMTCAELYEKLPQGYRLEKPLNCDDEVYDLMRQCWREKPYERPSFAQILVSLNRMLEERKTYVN
T3 sequence (P35916 with tags, fused parts or gaps isoform P35916-1 H890Q): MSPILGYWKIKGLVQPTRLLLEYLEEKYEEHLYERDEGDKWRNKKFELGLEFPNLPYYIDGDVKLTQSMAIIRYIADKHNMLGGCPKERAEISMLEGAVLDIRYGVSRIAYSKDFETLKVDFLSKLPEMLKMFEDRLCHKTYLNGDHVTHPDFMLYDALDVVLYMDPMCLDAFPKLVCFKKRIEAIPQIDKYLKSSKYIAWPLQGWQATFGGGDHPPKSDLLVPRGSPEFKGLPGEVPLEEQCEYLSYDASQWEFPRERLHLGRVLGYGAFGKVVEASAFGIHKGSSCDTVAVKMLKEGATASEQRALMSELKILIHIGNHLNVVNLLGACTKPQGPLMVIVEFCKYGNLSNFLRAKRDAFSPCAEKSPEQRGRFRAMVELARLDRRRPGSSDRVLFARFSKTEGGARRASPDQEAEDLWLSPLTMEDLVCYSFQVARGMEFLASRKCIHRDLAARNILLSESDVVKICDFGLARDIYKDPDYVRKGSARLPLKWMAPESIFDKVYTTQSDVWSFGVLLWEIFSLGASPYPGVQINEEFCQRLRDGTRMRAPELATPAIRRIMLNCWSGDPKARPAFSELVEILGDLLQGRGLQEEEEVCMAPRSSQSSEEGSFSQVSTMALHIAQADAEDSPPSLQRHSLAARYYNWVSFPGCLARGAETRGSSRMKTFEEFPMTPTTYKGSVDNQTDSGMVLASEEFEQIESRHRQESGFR

On to “1-(Chloro-trifluoromethyl-phenyl)-3-{4-[methyl-(2-morpholin-4-yl -ethylamino)-1H-pyrazolo[3,4-d]pyrimidin-3-yl]-phenyl}-urea [Example 37]”, for which the “TIE2 PIC50 TIE2-E2 assay” value in test [1] is “+++ (+++ = PIC50 = 7.00 to less than 7.40)”. In addition, the “VEGFR2 PIC50 VEGFR-E2 assay” value at GST-VEGFR2 is on record as “−− (−− = PIC50 less than 5.00)”. Also, the “VEGFR3 PIC50 VEGFR-3-HTRF assay” value in test [2] is on record as “+ (+ = PIC50 = 5.00 to less than 6.00)”.

Take “2,5-Dichloro-{4-{1-methyl-6-[3-(4-methyl-piperazin-1yl) -propylamino]-1H-pyrazolo[3,4-d]pyrimidin-3-yl}-phenyl}-thiophene-3-sulfonamide [Example 66]”: the “TIE2 PIC50 TIE2-E2 assay” value in test [1] is “+++ (+++ = PIC50 = 7.00 to less than 7.40)”. The “VEGFR2 PIC50 VEGFR-E2 assay” value at GST-VEGFR2 is reported as “−− (−− = PIC50 less than 5.00)”. In test [2], the “VEGFR3 PIC50 VEGFR-3-HTRF assay” value was “−− (−− = PIC50 less than 5.00)”.

Take `Cn1nc(-c2ccc(NC(=O)Nc3cc(C(F)(F)F)ccc3F)cc2)c2cnc(NCCN3CCOCC3)nc21` [Example 31, 1-(2-Fluoro-5-trifluoromethyl-phenyl)-3-{4-[1-methyl-6-(2-morpholin-4-yl-ethylamino)-1H-pyrazolo[3,4-d]pyrimidin-3-yl]-phenyl}urea]: the figures for the IC50 (in test [1]; on GST-VEGFR2; in test [2]) were 0.0398 to 0.1 µM, 1 to 10 µM and 1 to 10 µM, respectively.

Turning to `COCCNc1ncc2c(-c3ccc(NC(=O)Nc4cc(C(F)(F)F)ccc4F)cc3)nn(C)c2n1` [Example 32], the “TIE2 PIC50 TIE2-E2 assay” value in test [1] was “+++ (+++ = PIC50 = 7.00 to less than 7.40)”. Further, on GST-VEGFR2, the “VEGFR2 PIC50 VEGFR-E2 assay” value was “+ (+ = PIC50 = 5.00 to less than 6.00)”. Moreover, the “VEGFR3 PIC50 VEGFR-3-HTRF assay” value in test [2] is “+ (+ = PIC50 = 5.00 to less than 6.00)”.

With `Cn1nc(-c2ccc(NC(=O)Nc3cc(C(C)(C)C)on3)cc2)c2cnc(NCCN3CCOCC3)nc21` [Example 35], the IC50 in test [1] is 0.0398 to 0.1 µM; on GST-VEGFR2, 1 to 10 µM; in test [2], 0.1 to 1 µM.

Regarding `Cn1nc(-c2ccc(NC(=O)Nc3ccc4ccccc4c3)cc2)c2cnc(NCCN3CCOCC3)nc21` [Example 39, 1-{4-[1-Methyl-6-(2-morpholin-4-yl-ethylamino)-1H-pyrazolo[3,4-d]pyrimidin-3-y]-phenyl}-3-naphthalen-2-yl-urea], the IC50 in test [1] is 0.1 to 1 µM; on GST-VEGFR2, 1 to 10 µM; in test [2] it was 1 to 10 µM.

`Cn1nc(-c2ccc(NC(=O)Nc3cc(C(F)(F)F)ccc3F)c(F)c2)c2cnc(NCCN3CCOCC3)nc21` [Example 49]: the IC50 in test [1] is not above 0.0398 µM; at GST-VEGFR2, 1 to 10 µM; in test [2] it was 1 to 10 µM.

For `Cn1nc(-c2ccc(NS(=O)(=O)c3cccc(Cl)c3Cl)cc2)c2cnc(NCCCN3CCCC3=O)nc21` [Example 67], the IC50 (in test [1]; on GST-VEGFR2; in test [2]) was 1 to 10 µM each time.

As to `CC(=O)Nc1ncc2c(-c3ccc(NS(=O)(=O)c4cccc(Cl)c4Cl)cc3)nn(C)c2n1` [Example 71], the values for the IC50 (in test [1]; at GST-VEGFR2; in test [2]) were 1 to 10 µM, 1 to 10 µM and 0.1 to 1 µM, respectively.

Regarding `CC(C)n1nc(-c2ccc(NS(=O)(=O)c3cccc(Cl)c3Cl)cc2)c2cnc(NCCN3CCOCC3)nc21` [Example 77, 2,3-Dichloro-N-{4-(1-isopropyl-6-(2-morpholin-4-yl-ether)-1H -pyrazolo[3,4-d]pyrimidin-3-yl}-phenyl}-benzenesulfonamide], the IC50 lay in the range of 0.1 to 1 µM in test [1], 1 to 10 µM at GST-VEGFR2 and 1 to 10 µM in test [2].

On to `Cn1nc(-c2ccc(NC(=O)Nc3cc(C(F)(F)F)ccc3F)cc2)c2cnc(NCCCCCO)nc21` [Example 82], for which the IC50 in test [1] is 0.0398 to 0.1 µM; at GST-VEGFR2, more than 10 µM; in test [2], more than 10 µM.

Turning to `Cn1nc(-c2ccc(NC(=O)Nc3cc(C(F)(F)F)ccc3F)cc2)c2cnc(NCCCNS(C)(=O)=O)nc21` [Example 96, N-[3-(3-{4-[3-(2-Fluoro-5-trifluoromethyl-phenyl)-ureido]-phenyl}-1-methyl-1H-pyrazolo[3,4-d]pyrimidin-6-ylamino)-propyl]-methanesulfonamide], the IC50 is 0.0398 to 0.1 µM in test [1], 1 to 10 µM at GST-VEGFR2 and 1 to 10 µM in test [2].

As to `Cn1nc(-c2ccc(NC(=O)Nc3cc(C(F)(F)F)ccc3F)cc2)c2cnc(NCCCCNS(C)(=O)=O)nc21` [Example 97, N-[4-(3-{4-[3-(2-Fluoro-5-trifluoromethyl-phenyl)-ureido]-phenyl} -1-methyl-1H-pyrazolo[3,4-d]pyrimidin-6-ylamino)-butyl]-methanesulfonamide], the IC50 is 0.0398 to 0.1 µM in test [1], more than 10 µM on GST-VEGFR2 and 1 to 10 µM in test [2].

With `CC(=O)NCCNc1ncc2c(-c3ccc(NC(=O)Nc4cc(C(F)(F)F)ccc4F)cc3)nn(C)c2n1` [Example 98], the IC50 was not above 0.0398 µM in test [1], 1 to 10 µM on GST-VEGFR2 and more than 10 µM in test [2].

Consider `Cn1cccc1CCNc1ncc2c(-c3ccc(NC(=O)Nc4cc(C(F)(F)F)ccc4F)cc3)nn(C)c2n1` [Example 101, 1-(2-Fluoro-5-trifluoromethyl-phenyl)-3-{4-[1-methyl-6-(2-[1-methyl-1H-pyrrol-2-yl]-ethylamino)-1H-pyrazolo[3,4-d]pyrimidin-3-yl]-phenyl} urea], for which the IC50 in test [1] is not above 0.0398 µM; on GST-VEGFR2 it was 1 to 10 µM; in test [2], 1 to 10 µM.

For `Cn1nc(-c2ccc(NS(=O)(=O)c3cccc(Cl)c3Cl)cc2)c2cnc(NCCN3CCNC3=O)nc21` [Example 109, 2,3-Dichloro-N-(4-{1-methyl-6-[2-(2-oxo-imidazolidin-1-yl)-ethylamino]-1H-pyrazolo[3,4-d]pyrimidin-3-yl]-phenyl}-benzenesulfonamide], the IC50 in test [1] is more than 10 µM; on GST-VEGFR2, 1 to 10 µM; in test [2] it was 0.1 to 1 µM.

Regarding `Cn1nc(-c2ccc(NS(=O)(=O)c3cccc(Cl)c3Cl)cc2)c2cnc(NCCCO)nc21` [Example 112, 2,3-Dichloro-N-{4-[1-methyl-6-(3-hydroxy-propylamino)-1H-pyrazolo[3,4-d]pyrimidin-3-yl]-phenyl}-benzenesulfonamide], the IC50 in test [1] is more than 10 µM; at GST-VEGFR2, 1 to 10 µM; in test [2], 1 to 10 µM.

For `Cn1nc(-c2ccc(NS(=O)(=O)c3cccc(Cl)c3Cl)cc2)c2cnc(NCCCCO)nc21` [Example 113, 2,3-Dichloro-N-{4-[1-methyl-6-(4-hydroxy-butylamino)-1H-pyrazolo[3,4-d]pyrimidin-3-yl]-phenyl}-benzenesulfonamide], the IC50 (in test [1]; on GST-VEGFR2; in test [2]) was 1 to 10 µM throughout.

Turning to `Cn1nc(-c2ccc(NS(=O)(=O)c3cccc(Cl)c3Cl)cc2)c2cnc(NCCCCCO)nc21` [Example 114, 2,3-Dichloro-N-{4-[1-methyl-6-(5-hydroxy-pentylamino)-1H-pyrazolo[3,4-d]pyrimidin-3-yl]-phenyl}-benzenesulfonamide], the IC50 (in test [1]; on GST-VEGFR2; in test [2]) was 1 to 10 µM each time.

In the case of `Cn1nc(-c2ccc(NS(=O)(=O)c3cccc(Cl)c3Cl)cc2)c2cnc(NCCCCNS(C)(=O)=O)nc21` [Example 122, 2,3-Dichloro-N-{4-[1-methyl-6-(4-methanesulfonylamino-butylamino)-1H-pyrazolo[3,4-d]pyrimidin-3-yl]-phenyl}-benzenesulfonamide], the IC50 was 1 to 10 µM in test [1], more than 10 µM at GST-VEGFR2 and 1 to 10 µM in test [2].
